We go through 19 compounds from article PMC3954497 (Journal of Medicinal Chemistry, 2014).

The target of one data set is DAT (Rattus norvegicus, UniProt P23977). It counts as binding. The following applies: for improvement in DAT affinity vs unsubstituted analogue: 4i vs 4g, 6c vs 6a.
The target in the next data set is NET (Rattus norvegicus, UniProt Q63380). Kind of data set: biochemical. The data set is classed as binding. The note with it: 3 h, read-out: Ki [SE interval] NET.
The target of another data set is SERT (Rattus norvegicus, UniProt P31652). The data set is classed as binding. The note with it: for increase in SERT affinity vs unsubstituted analogue: 4i vs 4g, 6c vs 6a; for displacement at the SERT: rat brain membranes.
SERT, sequence (P31652 whole entry): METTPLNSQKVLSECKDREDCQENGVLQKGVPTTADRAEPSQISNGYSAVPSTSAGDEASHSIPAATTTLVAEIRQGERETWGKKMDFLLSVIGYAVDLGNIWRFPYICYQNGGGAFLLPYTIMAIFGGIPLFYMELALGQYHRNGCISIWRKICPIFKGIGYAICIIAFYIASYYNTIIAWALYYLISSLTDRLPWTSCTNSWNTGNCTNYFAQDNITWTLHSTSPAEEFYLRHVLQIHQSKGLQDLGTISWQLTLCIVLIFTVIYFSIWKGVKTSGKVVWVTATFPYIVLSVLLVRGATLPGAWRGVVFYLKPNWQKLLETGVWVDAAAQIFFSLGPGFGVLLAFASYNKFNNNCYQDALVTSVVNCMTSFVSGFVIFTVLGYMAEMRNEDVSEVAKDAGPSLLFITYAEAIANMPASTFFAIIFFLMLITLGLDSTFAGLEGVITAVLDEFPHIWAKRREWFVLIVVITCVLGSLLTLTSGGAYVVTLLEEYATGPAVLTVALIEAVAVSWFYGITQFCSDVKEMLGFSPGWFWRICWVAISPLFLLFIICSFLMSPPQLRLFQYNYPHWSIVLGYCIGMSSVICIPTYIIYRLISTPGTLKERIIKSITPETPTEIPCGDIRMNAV
Another data set concerns NCCc1c[nH]c2ccc(O)cc12. Kind of data set: cells, lysate or membranes. The note with it: pH 7.4; 37.0 °C.

DAT, sequence (P23977 whole entry): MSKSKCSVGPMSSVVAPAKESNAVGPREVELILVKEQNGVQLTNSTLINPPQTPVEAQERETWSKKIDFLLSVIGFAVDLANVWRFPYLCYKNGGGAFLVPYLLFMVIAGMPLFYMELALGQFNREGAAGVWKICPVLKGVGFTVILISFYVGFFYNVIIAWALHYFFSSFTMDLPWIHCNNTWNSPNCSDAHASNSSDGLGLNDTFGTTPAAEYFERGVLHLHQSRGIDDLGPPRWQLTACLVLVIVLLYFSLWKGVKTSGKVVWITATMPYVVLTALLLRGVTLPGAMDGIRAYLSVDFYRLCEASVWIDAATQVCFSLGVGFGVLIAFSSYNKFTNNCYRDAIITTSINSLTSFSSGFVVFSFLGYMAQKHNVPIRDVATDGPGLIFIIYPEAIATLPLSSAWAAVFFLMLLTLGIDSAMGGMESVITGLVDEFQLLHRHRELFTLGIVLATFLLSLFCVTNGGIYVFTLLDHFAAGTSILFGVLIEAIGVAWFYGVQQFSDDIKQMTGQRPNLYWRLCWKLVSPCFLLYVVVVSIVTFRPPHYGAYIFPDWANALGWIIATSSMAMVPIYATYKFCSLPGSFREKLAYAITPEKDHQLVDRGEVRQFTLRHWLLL
NET, sequence (Q63380 1-617): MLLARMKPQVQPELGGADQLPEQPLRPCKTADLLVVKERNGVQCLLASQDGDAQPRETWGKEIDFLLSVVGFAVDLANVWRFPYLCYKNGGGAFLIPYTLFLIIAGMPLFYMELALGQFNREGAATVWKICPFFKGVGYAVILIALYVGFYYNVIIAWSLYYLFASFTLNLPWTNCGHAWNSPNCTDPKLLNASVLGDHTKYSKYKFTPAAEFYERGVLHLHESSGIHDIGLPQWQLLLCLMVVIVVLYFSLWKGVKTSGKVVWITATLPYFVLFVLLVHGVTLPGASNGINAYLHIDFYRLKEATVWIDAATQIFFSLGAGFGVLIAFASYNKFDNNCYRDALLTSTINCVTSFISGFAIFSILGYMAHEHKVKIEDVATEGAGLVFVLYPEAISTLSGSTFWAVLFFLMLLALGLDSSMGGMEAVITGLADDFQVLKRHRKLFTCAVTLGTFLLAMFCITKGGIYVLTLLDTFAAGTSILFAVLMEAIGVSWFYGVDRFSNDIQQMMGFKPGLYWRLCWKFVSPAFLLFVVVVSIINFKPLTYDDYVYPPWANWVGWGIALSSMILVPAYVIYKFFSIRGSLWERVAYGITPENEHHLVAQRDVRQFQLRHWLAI

Take `NCCSC(c1ccccc1)c1ccccc1` [6a, 2-(Benzhydrylthio)ethan-1-amine]: the “improved DAT affinity compared to (±)-1” value on DAT is “about 20 fold”.

As to `NC(=O)C[S+]([O-])C(c1cccc(Cl)c1)c1cccc(Cl)c1` (stereo not drawn) [5d, 2-((Bis(3-chlorophenyl)methyl)sulfinyl)acetamide], the inhibition at NET is < 50%.

With `CNC(=O)CSC(c1ccc(Br)cc1)c1ccc(Br)cc1` [4i, 2-((Bis(4-bromophenyl)methyl)thio)-N-methylacetamide], the “increase in SERT affinity vs unsubstituted analogue” value at SERT is > 50 fold. Further, the “improvement in DAT affinity vs unsubstituted analogue” value on DAT is recorded as 6 fold.

With `Cc1ccc(C(c2ccc(C)cc2)[S+]([O-])CC(N)=O)cc1` (stereo not drawn) [5a, 2-((Di-p-tolylmethyl)sulfinyl)acetamide], the inhibition at NET was < 50%.

As for `CCCCNC(=O)CSC(c1ccccc1)c1ccccc1` [4r, 2-(Benzhydrylthio)-N-butylacetamide], the inhibition at NET was < 50%.

Regarding `O=C(CSC(c1ccccc1)c1ccccc1)NCCCc1ccccc1` [4u, 2-(Benzhydrylthio)-N-(3-phenylpropyl)acetamide], the inhibition at 100 µM at NET was < 50%.

Regarding `NC(=O)CSC(c1ccccc1)c1ccccc1` [4a, 2-(Benzhydrylthio)acetamide], the inhibition at NET was < 50%.

Turning to `O=C(CSC(c1ccc(Cl)cc1)c1ccc(Cl)cc1)NCCCc1ccccc1` [4w, 2-((Bis(4-chlorophenyl)methyl)thio)-N-(3-phenylpropyl)acetamide], at SERT, the “displacement at the SERT” value is on record as “no displacement”. Further, at NET, the inhibition at 100 µM is < 50%.

For `O=C(CSC(c1ccc(F)cc1)c1ccc(F)cc1)NCCCc1ccccc1` [4v, 2-((Bis(4-fluorophenyl)methyl)thio)-N-(3-phenylpropyl)acetamide], at NET, the inhibition at 100 µM is < 50%.

In the case of `NCCSC(c1ccc(Br)cc1)c1ccc(Br)cc1` [6c, 2-((Bis(4-bromophenyl)methyl)thio)ethan-1-amine], at SERT, the “increase in SERT affinity vs unsubstituted analogue” value came out at 9 fold. Also, the “improvement in DAT affinity vs unsubstituted analogue” value at DAT is listed as 3 fold.

As for `NC(=O)C[S+]([O-])C(c1ccccc1)c1cccc(Br)c1` (stereo not drawn) [5e, 2-(((3-Bromophenyl)phenylmethyl)sulfinyl)acetamide], at SERT, the “displacement at the SERT” value is listed as “no displacement”. Further, the inhibition at NET was < 50%.

As to hSERT-WT (Homo sapiens), the Km in the data set on NCCc1c[nH]c2ccc(O)cc12 is 520 [360–760] nM.

For `O=C(CSC(c1ccc(Br)cc1)c1ccc(Br)cc1)NCC1CC1` [4q, 2-((Bis(4-bromophenyl)methyl)thio)-N-(cyclopropylmethyl)acetamide], at NET, the inhibition is < 50%.

As to `O=C(CSC(c1ccccc1)c1ccccc1)NCC1CC1` [4o, 2-(Benzhydrylthio)-N-(cyclopropylmethyl)acetamide], at NET, the inhibition is < 50%.

On to `O=C(C[S+]([O-])C(c1ccc(Br)cc1)c1ccc(Br)cc1)NCCCc1ccccc1` (stereo not drawn) [5g, 2-((Bis(4-bromophenyl)methyl)sulfinyl)-N-(3-phenylpropyl)acetamide], for which the inhibition at 100 µM on NET is < 50%.

As for `C=CCNC(=O)CSC(c1ccccc1)c1ccccc1` [4j, N-Allyl-2-(benzhydrylthio)acetamide], the inhibition on NET is < 50%.

In the case of `CNC(=O)C[S+]([O-])C(c1ccccc1)c1ccccc1` (stereo not drawn) [5f, 2-(Benzhydrylsulfinyl)-N-methylacetamide], at NET, the inhibition was < 50%.

For `NC(=O)C[S+]([O-])C(c1cccc(F)c1)c1cccc(F)c1` (stereo not drawn) [5c, 2-((Bis(3-fluorophenyl)methyl)sulfinyl)acetamide], the inhibition on NET is < 50%.

For `O=C(CSC(c1ccc(Br)cc1)c1ccc(Br)cc1)NCCCCc1ccccc1` [4z, 2-((Bis(4-bromophenyl)methyl)thio)-N-(4-phenylbutyl)acetamide], the “displacement at the SERT” value on SERT is “no displacement”. Besides, the inhibition at 100 µM at NET was < 50%.
